Data reported in patent publication US20150209315A1 (Cumberland Pharmaceuticals, priority 2009, published 2015).
Several values for one entry are separate records, joined by “and”; a condition that tells them apart may be missing. Equal entries are not always repeated.

Key:
[1] = test system: post-operative adult patients; experiment: Example 1: adverse events and safety labs; type: in vivo, human
Method: (§1) Patients were evaluated and compared for morphine requirements between the active doses and placebo using analysis of variance and covariance procedures at an overall alpha level of 0.05. Secondary efficacy parameters were also evaluated and compared among the treatment groups using appropriate statistical methods described in the statistical analysis section of the protocol. Safety information was compared between the treatment groups using Chi-Square or Cochran-Mantel-Haenszel test. Demographic, background and baseline information among the treatment groups was also described.

[2] = test system: fever in hospitalized patients; experiment: Clinical trials of intravenous ibuprofen for fever; type: in vivo, human
[3] = test system: post-operative adult patients; experiment: Example 2: morphine use in the 24 hours following abdominal hysterectomy surgery; type: in vivo, human; conditions: 800 mg; for Morphine Requirement, Mean (SD) / Morphine Requirement, Median: 24 hours following surgery; for Transformed Morphine Requirement, LSMeans (SE) / Transformed Morphine Requirement, Max / Transformed Morphine Requirement, Mean (SD) / Transformed Morphine Requirement, Median / Transformed Morphine Requirement, Min: Box Cox transformation
Method: To be eligible for this study, the patients met the following inclusion criteria: 1) scheduled for elective abdominal hysterectomy surgery with anticipated need for post-operative I.V. morphine analgesia with anticipated use of greater than 24 hours; 2) adequate IV access; and 3) anticipated hospital stay greater than 24 hours. The study exclusion criteria required patients only between the ages of 18 and 70 years old. […] Efficacy was measured by comparing the reduction in morphine use over the 24 hours immediately post surgery. Efficacy was measured by reduction in the requirement for the narcotic analgesic, morphine, in the 24 hours post surgery.
The Clinical Trial Material (“CTM”) was mixed in 250 mL normal saline. Saline was chosen as the control group (placebo) for this study, to ensure blinding and allow for analysis of treatment effect.
By protocol, patients were to be dosed every six hours for five doses, then as necessary (PRN) for pain every six hours for up to five days post surgery. However, after 24 hours through day 5, CTM had to be discontinued if there was a requirement for narcotic pain medication other than morphine or non-narcotic medications including the use of another NSAID. Further, after 24 hours through day 5, CTM may have been discontinued if there was resolution of pain, no IV access or discharge from the hospital.
The study participants were randomized based on criteria for an efficacy evaluable population (EEP) versus an intent to treat population (ITT). […] The intent-to-treat population (ITT) consists of AT patients who received at least one post-surgical dose of CTM or at least one dose of morphine for break-through pain. The efficacy evaluable population (EEP) consists of all ITT patients who received each of the first five doses of CTM within 60 minutes of the scheduled time and who have the 6-hour and 28-hour VAS with movement assessments.
Eligible patients were randomized to one of the two treatment groups. All patients were able (but were not required) to receive morphine until approximately 45 minutes before the end of the surgical procedure. After that time, only fentanyl was allowed until the end of the operation. […] Upon discharge from the operating room, patients had access to morphine (approximately 1-2 mg q 5 minutes) upon patient request or delivered by patient-controlled analgesia (PCA). […] Upon discharge from the operating room, patients had access to 1 mg morphine every 5 minutes upon request or by patient-controlled analgesia (PCA). […] Patients given non-morphine analgesics were classified as treatment failures. Treatment failures were not replaced.
as §1
The primary endpoint for the study was reduction in the requirement for morphine use in the 24 hours following surgery as measured by total morphine usage compared to placebo. Analysis of variance and covariance procedures were used to compare the reduction in the requirement for morphine use in the 24 hours following surgery among the treatment groups. Dunnet's test was used as a multiple comparison test to compare active dose groups with the placebo group at an overall alpha level of 0.05. In the primary model, center was introduced as a covariate.

[4] = test system: post-operative adult patients; experiment: Example 2: time to GI motility, ambulation, liquid intake, solid diet, length of hospital stay; type: in vivo, human; conditions: 800 mg; for Time to GI motility: value + SD
Method: To evaluate the secondary objective of determining whether the addition of IVIb reduces the incidence of opioid related side-effects, the following endpoints were measured: (a) GI motility as assessed by return of bowel sounds, flatulence, or bowel movement (b) Combined Safety Assessment (occurrence of any of the following during the 48 hour treatment period received a rating of one: diffuse pruritus, overt respiratory depression requiring treatment; the combined total and individual incidences were evaluated), need for post-operative urinary indwelling catheter (after initial removal of surgical catheter), incidence of post-operative vomiting or need for anti-emetic medication, Richmond Agitation Sedation Scale (<−3), (c) Resumption of ambulation, (d) Resumption of liquid intake and solid diet, and (e) Length of hospital stay.

[5] = test system: patients with fever and severe sepsis; conditions: cited from earlier work

**Q.** Which results are given for `CC(C)Cc1ccc(C(C)C(=O)O)cc1` (stereo not drawn) [Ibuprofen, 2-(4-isobutylphenyl) propionic acid]?
**A.** patients experiencing nausea vs placebo ([1]; 400 mg): significant reduction; bleeding or renal complications ([1]; 400 mg and 800 mg): no additional bleeding or renal complications; patients experiencing serious adverse events vs placebo ([1]; 400 mg and 800 mg): no significant differences in the number of patients experiencing serious adverse events between groups; Dizziness vs placebo ([1]; 800 mg): experienced more often; patients experiencing diarrhea vs morphine only (placebo) ([1]; 800 mg): significant reduction; patients experiencing nausea vs placebo ([1]; 800 mg): trending toward significance; patient deaths ([1]; 14 day study): no patient deaths; patients experiencing gastrointestinal disorders and fever vs morphine only (placebo) ([1]; both 400 mg and 800 mg): significant reduction; treated patients with reduced fever ([2]; at 4 hours): 100%; placebo-treated vs IV Ibuprofen treated patients with uncontrolled fever ([2]; at 24 hours): ~4 times; reduction in temperature ([2]; critically ill patients, 48-hour study period): Significant reduction in temperature was maintained; acetaminophen requirement and fever control vs acetaminophen alone ([2]; critically ill patients, subset analysis): required less acetaminophen and had better fever control; Rapid fever reduction seen as fast as ([2]; malaria patients): 30 min; patients with significant fever reduction ([2]; phase 3 clinical trial, within 4 hours, vs 32% with placebo): 77%; Morphine Requirement, Max ([3]; Efficacy Evaluable): 143.3 mg; Morphine Requirement, Min ([3]; Efficacy Evaluable): 4.0 mg; Morphine Requirement, Mean (SD) ([3]; Efficacy Evaluable): 45.5 mg and 45.5 (24.6) mg; Morphine Requirement, Median ([3]; Efficacy Evaluable): 42.0 mg; Transformed Morphine Requirement, LSMeans (SE) ([3]; Efficacy Evaluable): 10.8 (0.3) mg; Transformed Morphine Requirement, Max ([3]; Efficacy Evaluable): 21.2 mg; Transformed Morphine Requirement, Mean (SD) ([3]; Efficacy Evaluable): 10.7 (3.5) mg; Transformed Morphine Requirement, Median ([3]; Efficacy Evaluable): 10.7 mg; Transformed Morphine Requirement, Min ([3]; Efficacy Evaluable): 2.0 mg; Morphine Requirement, Max ([3]; Intent-to-Treat): 143.3 mg; Morphine Requirement, Min ([3]; Intent-to-Treat): 4.0 mg; Morphine Requirement, Mean (SD) ([3]; Intent-to-Treat): 47.3 mg and 47.3 (25.6) mg; Morphine Requirement, Median ([3]; Intent-to-Treat): 43.5 mg; Transformed Morphine Requirement, LSMeans (SE) ([3]; Intent-to-Treat): 12.1 (0.4) mg; Transformed Morphine Requirement, Max ([3]; Intent-to-Treat): 23.5 mg; Transformed Morphine Requirement, Mean (SD) ([3]; Intent-to-Treat): 11.8 (4.0) mg; Transformed Morphine Requirement, Median ([3]; Intent-to-Treat): 11.8 mg; Transformed Morphine Requirement, Min ([3]; Intent-to-Treat): 2.0 mg; Length of hospital stay ([4]; EEP): 62.8 ± 21.58; Time to ambulation ([4]; EEP): 23.5 ± 0.53 h; Time to liquid intake ([4]; EEP): 12.4 ± 0.89; Time to solid diet ([4]; EEP): 39.1 ± 1.42 h; Time to GI motility ([4]; EEP): 9.2+0.90 hours; Length of hospital stay ([4]; ITT): 62.4 ± 21.01; Time to ambulation ([4]; ITT): 23.4 ± 0.50 h; Time to liquid intake ([4]; ITT): 12.1 ± 0.83; Time to solid diet ([4]; ITT): 41.0 ± 2.46 h; Time to ambulation ([4]; ITT, listed as IV Ibuprofen): significantly improved time to ambulation; Time to GI motility ([4]; ITT): 9.4+0.87 hours; safety (renal function, gastrointestinal bleeding, transfusion requirements, other SAEs) ([5]; in vivo, iv): safe; effect on fever, pulse rate and lactic acidosis ([5]; patients with sepsis, intravenous): reduced fever and pulse rate and lessened lactic acidosis
